Data taken from paper PMC5834492, “Antimycobacterial drug discovery using Mycobacteria-infected amoebae identifies anti-infectives and new molecular targets” (Scientific Reports, 2018).
Where two headings read alike, the source gives them in different places.

Tests used:
[1] = system: M. marinum in A. castellanii; assay type: cell-based, Mycobacterium marinum; settings: 10 µM
[2] = system: M. marinum in BV2 microglial cells; assay type: cell-based, Mycobacterium marinum
M. marinum GFP = assay type: cell-based, Mycobacterium marinum; settings: 10 µM; antibiotic assay
M. marinum luxCDABE = assay type: cell-based, Mycobacterium marinum; settings: 10 µM
Mtb H37Rv in THP-1 = system: Mtb H37Rv in THP-1; parameters: method as in Sorrentino et al, 2015; settings: ref Sorrentino et al, 2015, cited from earlier work; for Extracellular MIC90/ Inracellular MIC90: ratio
Mtb H37Rv = system: Mtb H37Rv; parameters: method as in Sorrentino et al, 2015; settings: ref Sorrentino et al, 2015; cited from earlier work
D. discoideum GFP-ABD = settings: 10 µM
[3] = THP1 / Mtb H37Rv infection assay

| SMILES | A. castellanii / M. marinum normalised growth, control=1.00, mean [1] | IC50 [2] [µM] | BV2 / M. marinum normalised growth, control=1.00, mean ([2]; 10 µM) | M. marinum GFP normalised growth, control=1.00, mean (M. marinum GFP) | M. marinum luxCDABE normalised growth, control=1.00, mean (M. marinum luxCDABE) | Intracelullar MIC90 in THP-1 (Mtb H37Rv in THP-1; [3]) [µM] | Extracellular MIC90/ Inracellular MIC90 (Mtb H37Rv in THP-1) | Extracellular MIC90 (Mtb H37Rv) [µM] | D. discoideum GFP-ABD normalised growth, control=1.00, mean (D. discoideum GFP-ABD) | Hits A. castellanii/M. marinum assay True/False [1] | anti-infective properties in A. castellanii infection assay [1] | anti-infective properties in microglial cell (BV2) infection assay ([2]; 10 µM) | hit in BV2/M. marinum assay True/False ([2]; 10 µM) | M. marinum luxCDABE normalised growth, control = 1.00, mean (M. marinum luxCDABE) | Intracelullar MIC90 in THP-1 (Mtb H37Rv in THP-1; Mtb H37Rv-infected THP1 cells) [µM] | D. discoideum GFP-ABD normalised growth, control = 1.00, mean (D. discoideum GFP-ABD) |
| --- | --- | --- | --- | --- | --- | --- | --- | --- | --- | --- | --- | --- | --- | --- | --- | --- |
| CSc1ccccc1C(=O)Nc1nc(-c2ccccn2)cs1 [GSK921190A] | 1.20 | 4.08 | 0.94 | 0.45 | 0.10 | 16.65 | 0.1 | 1.7 | 0.94 |  |  |  |  |  |  |  |
| Cc1nc2ccccn2c1C(=O)NCc1ccccc1 [GSK957094A] | 0.54 | 7.59 | 0.52 | 0.0746 | 0.11 | 5.55 | 0.36 | 2 | 0.93 |  |  |  |  |  |  |  |
| COc1ccccc1OCCCCn1c(C2CC2)nc2ccccc21 [GSK994258A] | 1.03 | 8.73 | 0.59 | 0.10 | 0.00 | 5.55 | 0.61 | 3.4 | 0.31 |  |  |  |  |  |  |  |
| COc1ccc(Nc2ccccc2NC(=O)c2ccc(O)nc2)cc1 [GSK1051703A] | 1.00 | 6.47 | 0.65 | 0.84 | 1.00 | 5.55 | 1.28 | 7.1 | 1.00 |  |  |  |  |  |  |  |
| O=C(NC(Cc1ccccc1)C(=O)Nc1ccccc1N1CCOCC1)c1cccs1 (stereo not shown) [GSK1055950A] | 0.24 | 2.84 | 0.33 | -0.01 | 0.00 | 1.85 | 4.11 | 7.6 | 1.07 | TRUE | strong anti-infective properties | strong anti-infective properties | TRUE | 0,00 | 1.85 | 1,07 |
| Cc1nnc(NCc2cccc(Cl)c2)c2ccccc12 [GSK1302651A] | 1.01 | 4.41 | 0.87 | 0.56 | 0.00 | 5.55 | 1.06 | 5.9 | 0.97 |  |  |  |  |  |  |  |
| Cc1ccc(C(=O)Nc2nc(-c3ccccn3)cs2)s1 [GSK1372568A] | 1.35 | 5.33 | 0.95 | 0.69 | 0.00 | 50 | 0.17 | 8.4 | 0.31 |  |  |  |  |  |  |  |
| CCn1c(=O)c(=O)[nH]c2cc(C(=O)Nc3ccccc3Nc3ccc(OC)cc3)ccc21 [GSK1385423A] | 1.07 | 2.42 | 0.71 | 0.98 | 1.00 | 0.61 | 13.77 | 8.4 | 0.39 |  |  |  |  |  |  |  |
| O=C(c1cc2c(s1)CCC2)N1CCN(Cc2ccc3c(c2)OCO3)CC1 [GSK1731114A] | 0.92 | 9.43 | 0.81 | 0.30 | 0.085 | 5.55 | 0.95 | 5.3 | 0.44 |  |  |  |  |  |  |  |
| O=C(C=Cc1cccs1)N1CCN(Cc2ccc(Br)s2)CC1 [GSK1744926A] | 0.74 | 4.18 | 0.70 | 0.13 | 0.00 | 1.85 | 1.03 | 1.9 | 0.50 |  |  |  |  |  |  |  |
| CN1CCN(c2ccc(C(F)(F)F)cc2NC(=O)c2ccccn2)CC1 [GSK1750922A] | 0.93 | 5.07 | 0.94 | 0.91 | 1.00 | 50 | 0.04 | 1.9 | 0.29 |  |  |  |  |  |  |  |
| CCOc1ccc(-c2nc(CNCCc3ccc(F)cc3)cs2)cc1.O=C(O)C(=O)O [GSK1759150A] | 0.82 | 4.31 | 0.73 | 0.75 | 0.37 | 16.65 | 0.07 | 1.1 | 0.30 |  |  |  |  |  |  |  |
| Cl.O=C(c1ccco1)N(CCCn1ccnc1)c1nc2c(Cl)cccc2s1 [GSK1788487A] | 1.34 | 4.96 | 0.94 | 0.66 | 0.09 | 50 | 0.17 | 8.4 | 0.32 |  |  |  |  |  |  |  |
| Cn1ccnc1CNCCS(=O)(=O)c1cccc(Nc2ccc(-c3cccc(F)c3)cn2)c1 [GSK1826247A] | 1.14 | 7.73 | 0.98 | 0.98 | 0.00 | 0.61 | 7.7 | 4.7 | 0.90 |  |  |  |  |  |  |  |
